Reference: US6350478B1, “Artemisia judaica fractionation method” (Phytotech Limited, priority 1996, dated 2002)

What was measured:
STZ Diabetic Rats = assay: Antidiabetic activity in STZ diabetic rats; format: in vivo, rat; settings: Extract 2 10-120 μg/ml po
Description: This extract, referred to as Extract 1 or Fraction 1, was tested in rats rendered diabetic by administration of Streptotozocin (STZ), and in in vitro tests for insulin-like activity. Toxicity was tested in a bacterial (Ames) mutagenicity test.
Urine was tested for the presence of ketones and glucose using Keto-Diabur Test 5000 sticks (Boehringer Mannheim, Lewes, UK). Glucose was assayed by the glucose oxidase method as described by Trinder (1969) using a kit supplied by the Sigma Chemical Co Ltd, Pool, UK)
The animals were monitored for 7 day periods before being made diabetic, after induction of diabetes by administration of STZ and during Artemisia treatment, so that each animal acted as its own control. Food intake rose after induction of diabetes and fell again following treatment with Artemisia.

[1] = system: androst-4-ene 3, 17-dione metabolism; assay: Steroid metabolism (androst-4-ene 3, 17-dione metabolism) of liver cells; format: cell-based, rat; settings: STZ diabetic rats; Extract 1 200 μg/ml, Extract 2 10-120 μg/ml, Extract 3 1 ng/ml, Insulin 1 ng/ml, Inositol 100-100 μg/ml
Description: Isolated hepatocytes were prepared from control animals by a modification of the double perfusior technique of Seglen (1973) involving […] animal with halothane/nitrous oxide and inserting a cannula into the hepatic portal vein. The liver was subsequently perfused first with a calcium-free buffer and then with collagenase solution. The isolated cells were freed from the connective tissue by gentle combing. Hepatocytes were suspended in Ham's F-10 nutrient solution, Williams' medium E or Krebs-Henseleit medium depending on the assay to be performed. The effects of Extract 1 on steroid metabolism in liver cells was also studied. The animals were killed by CO2 asphyxiation and the liver quickly exised and placed in ice-cold buffer (0.1M phosphate buffer, pH 7.4). The liver was homogenised using a Potter-Elvehjem homogeniser with a teflon pestle and microsomes were prepared by differential centrifugation. The microsomes were resuspended by gentle homogenisation in the same buffer. The protein content was measured by the method of Lowry using bovine serum albumin as standard and the microsomes were diluted by 10 mg protein/ml. The diluted microsomes were assayed for aniline 4-hydroxylase activity and aminopyrine N-demethylase activity (results not shown) and for androst-4-ene 3, 17-dione metabolism using published methodology. […]

Glycogen phosphorylase a = Glycogen phosphorylase a activity in isolated rat hepatocytes (insulin-like activity); format: cell-based; settings: for Activity of liver cells: Glycogen Phosphorylase a activity: isolated rat hepatocytes, Extract 1 200 μg/ml, Extract 3 1 ng/ml, Insulin 1 ng/ml, Inositol 100-100 μg/ml
Description: (§1) Isolated hepatocytes were prepared from control animals by a modification of the double perfusior technique of Seglen (1973) involving anaesthetising he animal with halothane/nitrous oxide and inserting a cannula into the hepatic portal vein. The liver was subsequently perfused first with a calcium-free buffer and then with collagenase solution. The isolated cells were freed from the connective tissue by gentle combing. Hepatocytes were suspended in Ham's F-10 nutrient solution, Williams' medium E or Krebs-Henseleit medium depending on the assay to be performed.
(§2) Glycogen phosphorylase a activity, as an index of insulin-like or glucagon antagonist activity can be measured using falling logarithmic concentrations of analyte in the presence or absence of insulin or glucagon.
Isolated hepatocytes, suspended in Krebs-Henseleit solution at a concentration of 10^6 cells/ml, were treated with Artemisia extract at a concentration of […] (final concentration) in the presence or absence of insulin (10^−7M) or glucagon ([…]) for 2 minutes in a shaking water bath at 37° C. under constant oxygenation with 100% oxygen. The cells were subsequently centrifuged for 30s in a Beckman Microfuge and the pellet resuspended in MOPS buffer (pH 6.5) containing sodium fluoride (12.6 g/l), EDTA (1.85 g/l) and a dithiothreitol (0.31 g/l) at 10^6 cells/ml. The suspended cells were homogenised in a Potter-Elvehjem homogeniser and the homogenate centrifuged at 300×g in a Damon-IEC refrigerated centrifuge at 4° C. for 10 minutes. The resultant supernatant was used to assay for glycogen phosphorylase a activity as described by Preiksatis & Kunos (1979). This technique involves the measurement of [^14C]glycose-1-phosphate to glycogen conversion in the presence of caffeine to inhibit glycogen phosphorylase b activity.
Each fraction was carefully evaporated to dryness and weighed in a tared vessel. The dried samples were redissolved in methanol (100 μl) and (100 μl of H2O for the void volume) and subjected to chromatography. […]

glucagon response = assay: Glycogen phosphorylase a activity in isolated hepatocytes in the presence of glucagon (glucagon antagonist activity); format: cell-based, rat; settings: Extract 1 200 μg/ml, Extract 3 1 ng/ml, Insulin 1 ng/ml
Description: as §1, §2
Isolated hepatocytes, suspended in Krebs-Henseleit solution at a concentration of 10^6 cells/ml, were treated with Artemisia extract at a concentration of […] (final concentration) in the presence or absence of insulin (10^−7M) or glucagon ([…]) for 2 minutes in a shaking water bath at 37° C. under constant oxygenation with 100% oxygen. The cells were subsequently centrifuged for 30s in a Beckman Microfuge and the pellet resuspended in MOPS buffer (pH 6.5) containing sodium fluoride (12.6 g/l), EDTA (1.85 g/l) and a dithiothreitol (0.31 g/l) at 10^6 cells/ml. […]

[2] = system: Escherichia coli and Salmonella typhimurium; assay: Ames bacterial mutagenicity test, liver fraction supplemented; format: cell-based; settings: Ames test with liver fraction
Description: Escherichia coli and Salmonella typhimurium were used in the Ames test (B. N. Ames, J. McCann, E. Yamasaki—Mutation Res. 31 (1975) 347). The bacteria used carry a mutation which makes them dependent upon the presence of a specific nutrient medium for growth. If the test substance added to the growth medium of a plate of such bacteria is mutagenic, then a small proportion of the mutations it induces will cause the nutrient dependency mutation to revert, so that the bacteria will synthesise the nutrient and grow even in its absence. Observing whether colonies grow on nutrient deficient plates in the presence and absence of the test substance will thus reveal whether the substance is mutagenic and can give a measure of the mutagenicity of the substance.

[3] = dietary supplementation; The Lancet May 20, 1989; cited from earlier work
[4] = Extract 1 200 μg/ml po, Extract 3 1 ng/ml po, Insulin 1 ng/ml sc

Row | Compound | Excessive food intake (STZ Diabetic Rats; Extract 1 200 μg/ml po (drinking water), Extract 3 1 ng/ml po, Insulin 1 ng/ml sc) | Diuresis (STZ Diabetic Rats; Extract 1 200 μg/ml po) | Glucosuria (STZ Diabetic Rats; [4]) | Ketonuria (STZ Diabetic Rats; [4]) | Weight gain (STZ Diabetic Rats; [4]) | Activity of liver cells: Steroid metabolism [1] | Activity of liver cells: Glycogen Phosphorylase a activity (Glycogen phosphorylase a) | Activity of liver cells: Effect on glucagon response (glucagon response) | Bacterial mutagenicity [2] | activity in the in vitro liver cell system (Glycogen phosphorylase a; levels of up to 1 mg/ml) | improvement of nerve function in the management of complications of diabetes mellitus [3]
1 | Insulin | reversed | reduced | reduced | reduced | normalised | restored * | decreased *** | reversed *** | negative | – | –
2 | O[C@H]1[C@H](O)[C@@H](O)[C@H](O)[C@@H](O)[C@H]1O [Inositol] | – | – | – | – | – | negative | negative | – | – | inactive | no evidence
